In ChEMBL document CHEMBL5649166, “RIP3 induces apoptosis independent of pronecrotic kinase activity” (Mol Cell, 2014) one finds residual activity and Activity data, which are given here for three compounds.

The term residual activity denotes the signal under treatment as a percentage of the control signal.

The target in data set [1] is T1, Serine/threonine-protein kinase 4 (Homo sapiens) (UniProt Q13043).
T1 sequence (whole entry): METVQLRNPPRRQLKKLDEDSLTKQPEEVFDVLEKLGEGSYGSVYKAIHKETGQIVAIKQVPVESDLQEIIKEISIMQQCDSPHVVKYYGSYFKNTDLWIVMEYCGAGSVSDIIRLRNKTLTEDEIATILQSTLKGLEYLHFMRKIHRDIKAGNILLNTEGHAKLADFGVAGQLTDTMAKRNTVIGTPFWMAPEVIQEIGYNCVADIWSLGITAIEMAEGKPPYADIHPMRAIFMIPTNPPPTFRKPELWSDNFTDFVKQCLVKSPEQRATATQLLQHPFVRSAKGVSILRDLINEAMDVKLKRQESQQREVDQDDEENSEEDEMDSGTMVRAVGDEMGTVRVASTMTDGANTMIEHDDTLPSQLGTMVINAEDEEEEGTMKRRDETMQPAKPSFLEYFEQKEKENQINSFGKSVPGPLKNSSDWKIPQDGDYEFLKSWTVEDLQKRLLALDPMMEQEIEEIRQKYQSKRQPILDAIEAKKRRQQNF
The data set is described as follows: Inhibition of human MST1/STK4 using KKSRGDYMTMQIG as substrate at 1 uM in presence of 32P-ATP by Hotspot assay relative to control; values are per cent of control.

Data set [2] concerns the target T2, Protein kinase C iota type (Homo sapiens) (UniProt P41743).
T2 sequence (whole entry): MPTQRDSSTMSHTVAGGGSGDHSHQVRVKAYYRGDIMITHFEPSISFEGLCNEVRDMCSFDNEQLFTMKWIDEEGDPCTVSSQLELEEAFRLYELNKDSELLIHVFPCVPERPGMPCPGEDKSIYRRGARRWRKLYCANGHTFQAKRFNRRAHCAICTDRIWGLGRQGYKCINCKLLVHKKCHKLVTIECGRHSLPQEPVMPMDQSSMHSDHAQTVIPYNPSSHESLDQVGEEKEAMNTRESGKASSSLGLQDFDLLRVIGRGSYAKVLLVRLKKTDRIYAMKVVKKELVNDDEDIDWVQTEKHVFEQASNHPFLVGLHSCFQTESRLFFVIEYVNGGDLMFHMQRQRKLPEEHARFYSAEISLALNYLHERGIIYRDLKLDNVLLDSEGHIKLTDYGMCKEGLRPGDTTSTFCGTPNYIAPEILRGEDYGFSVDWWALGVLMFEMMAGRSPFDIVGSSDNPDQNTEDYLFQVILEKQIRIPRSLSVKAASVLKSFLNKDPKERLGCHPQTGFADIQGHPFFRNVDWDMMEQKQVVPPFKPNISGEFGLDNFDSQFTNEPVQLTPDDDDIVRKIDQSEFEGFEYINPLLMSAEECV
Description: Inhibition of human PKCiota using ERMRPRKRQGSVRRRV as substrate at 1 uM in presence of 32P-ATP by Hotspot assay relative to control; values are per cent of control.

Data set [3] relates to MEF. The data set is described as follows: Induction of apoptosis in RIP3-/- MEF cells transfected with human RIP3mutRHIM incubated for 18 hrs by Cell Titer-Glo luminescent cell viability assay. Format: toxicity, cell-based. Conditions: mouse. On the technique in general: In ATP-based viability assays light output follows the ATP content of the culture.
Data set [4] addresses ALK tyrosine kinase receptor (Homo sapiens) (UniProt Q9UM73). The data set is described as follows: Inhibition of human ALK using poly[Glu:Tyr] (4:1) as substrate at 1 uM in presence of 32P-ATP by Hotspot assay relative to control; values are per cent of control.
Data set [5] concerns the target T3, Tyrosine-protein kinase ITK/TSK (Homo sapiens) (UniProt Q08881).
T3 sequence (whole entry): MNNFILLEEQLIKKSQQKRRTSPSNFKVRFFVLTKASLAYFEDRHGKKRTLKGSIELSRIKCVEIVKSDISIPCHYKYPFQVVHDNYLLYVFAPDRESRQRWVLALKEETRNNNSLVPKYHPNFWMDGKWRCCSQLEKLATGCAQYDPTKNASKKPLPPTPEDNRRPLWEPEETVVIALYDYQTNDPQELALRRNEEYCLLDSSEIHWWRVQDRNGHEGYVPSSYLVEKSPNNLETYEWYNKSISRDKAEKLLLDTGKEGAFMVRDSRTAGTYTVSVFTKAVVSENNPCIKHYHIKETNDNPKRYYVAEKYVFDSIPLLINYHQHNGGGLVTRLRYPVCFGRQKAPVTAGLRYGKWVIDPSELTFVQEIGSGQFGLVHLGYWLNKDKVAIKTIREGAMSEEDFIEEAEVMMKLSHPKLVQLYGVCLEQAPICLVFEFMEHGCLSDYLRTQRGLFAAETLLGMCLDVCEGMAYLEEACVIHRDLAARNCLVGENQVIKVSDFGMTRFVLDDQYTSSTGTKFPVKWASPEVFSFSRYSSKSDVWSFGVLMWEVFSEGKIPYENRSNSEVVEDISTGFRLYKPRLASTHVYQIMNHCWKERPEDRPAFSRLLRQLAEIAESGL
The data set is described as follows: Inhibition of human ITK using myelin basic protein as substrate at 1 uM in presence of 32P-ATP by Hotspot assay relative to control; values are per cent of control.

Data set [6] addresses Myosin light chain kinase 2, skeletal/cardiac muscle (Homo sapiens) (UniProt Q9H1R3). Description: Residual activity of human MLCK2/MYLK2 using KKLNRTLSFAEPG as substrate at 1 uM in presence of 32P-ATP by Hotspot assay relative to control.
Data set [7] is filed under the species Homo sapiens. The data set is described as follows: Inhibition of human CDK7/cyclin H using myelin basic protein as substrate at 1 uM in presence of 32P-ATP by Hotspot assay relative to control; values are per cent of control.
The target of data set [8] is T4, TGF-beta receptor type-1 (Homo sapiens) (UniProt P36897).
T4 sequence (whole entry): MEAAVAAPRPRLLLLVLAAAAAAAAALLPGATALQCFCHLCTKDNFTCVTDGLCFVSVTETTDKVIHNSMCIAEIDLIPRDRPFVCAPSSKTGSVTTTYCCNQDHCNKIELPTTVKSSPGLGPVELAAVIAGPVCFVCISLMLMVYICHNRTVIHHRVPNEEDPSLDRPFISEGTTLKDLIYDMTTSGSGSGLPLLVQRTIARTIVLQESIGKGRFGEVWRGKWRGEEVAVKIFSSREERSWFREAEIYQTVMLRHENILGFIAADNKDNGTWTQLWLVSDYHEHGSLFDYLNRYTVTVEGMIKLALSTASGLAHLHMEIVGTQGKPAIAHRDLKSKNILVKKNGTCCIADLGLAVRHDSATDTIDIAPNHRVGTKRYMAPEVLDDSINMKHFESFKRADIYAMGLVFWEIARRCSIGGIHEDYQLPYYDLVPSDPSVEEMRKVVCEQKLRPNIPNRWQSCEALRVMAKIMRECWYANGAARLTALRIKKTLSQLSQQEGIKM
The data set is described as follows: Inhibition of human ALK5/TGFBR1 using casein as substrate at 1 uM in presence of 32P-ATP by Hotspot assay relative to control; values are per cent of control.

Sequence of ALK tyrosine kinase receptor (Homo sapiens) (Q9UM73 19-1620 limits assumed): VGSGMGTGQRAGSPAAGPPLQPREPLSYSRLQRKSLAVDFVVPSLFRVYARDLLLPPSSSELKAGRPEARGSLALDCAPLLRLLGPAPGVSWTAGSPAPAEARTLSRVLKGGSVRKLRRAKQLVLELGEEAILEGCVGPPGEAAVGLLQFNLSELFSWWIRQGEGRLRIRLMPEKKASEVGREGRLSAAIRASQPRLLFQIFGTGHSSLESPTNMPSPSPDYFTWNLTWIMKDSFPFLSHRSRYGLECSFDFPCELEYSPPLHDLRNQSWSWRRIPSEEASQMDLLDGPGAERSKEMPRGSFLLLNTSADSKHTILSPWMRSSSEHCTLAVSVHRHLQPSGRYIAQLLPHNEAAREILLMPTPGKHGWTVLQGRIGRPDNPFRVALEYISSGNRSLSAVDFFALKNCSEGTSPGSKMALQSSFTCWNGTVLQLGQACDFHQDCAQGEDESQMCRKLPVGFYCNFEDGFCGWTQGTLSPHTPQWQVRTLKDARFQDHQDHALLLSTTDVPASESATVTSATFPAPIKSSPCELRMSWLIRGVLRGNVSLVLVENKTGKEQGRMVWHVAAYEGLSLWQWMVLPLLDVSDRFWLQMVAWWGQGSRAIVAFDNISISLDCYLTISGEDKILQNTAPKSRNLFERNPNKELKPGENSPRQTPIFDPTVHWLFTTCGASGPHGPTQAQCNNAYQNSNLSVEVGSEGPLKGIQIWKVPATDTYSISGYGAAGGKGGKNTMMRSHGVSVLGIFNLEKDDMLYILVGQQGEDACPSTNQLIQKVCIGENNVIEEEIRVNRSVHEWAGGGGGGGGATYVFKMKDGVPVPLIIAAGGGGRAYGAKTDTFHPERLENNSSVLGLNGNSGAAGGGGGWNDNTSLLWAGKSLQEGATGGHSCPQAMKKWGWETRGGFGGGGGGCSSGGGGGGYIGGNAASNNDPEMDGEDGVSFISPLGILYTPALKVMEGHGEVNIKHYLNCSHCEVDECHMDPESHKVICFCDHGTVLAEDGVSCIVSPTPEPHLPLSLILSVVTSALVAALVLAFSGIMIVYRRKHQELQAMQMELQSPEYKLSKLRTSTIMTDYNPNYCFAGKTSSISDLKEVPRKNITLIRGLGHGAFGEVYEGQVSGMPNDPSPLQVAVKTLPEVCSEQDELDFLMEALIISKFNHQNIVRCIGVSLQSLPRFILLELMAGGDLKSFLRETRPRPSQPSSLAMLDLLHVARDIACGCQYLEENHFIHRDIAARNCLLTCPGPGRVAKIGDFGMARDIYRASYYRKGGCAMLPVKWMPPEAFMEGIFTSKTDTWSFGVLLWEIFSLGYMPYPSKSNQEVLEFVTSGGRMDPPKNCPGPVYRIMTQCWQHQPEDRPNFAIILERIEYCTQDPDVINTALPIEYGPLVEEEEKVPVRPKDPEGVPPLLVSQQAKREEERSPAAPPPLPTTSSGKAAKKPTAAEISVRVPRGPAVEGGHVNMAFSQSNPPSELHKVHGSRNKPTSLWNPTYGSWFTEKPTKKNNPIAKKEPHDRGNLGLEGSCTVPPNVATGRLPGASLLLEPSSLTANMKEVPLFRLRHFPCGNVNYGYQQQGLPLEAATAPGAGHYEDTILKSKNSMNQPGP
Sequence of Myosin light chain kinase 2, skeletal/cardiac muscle (Homo sapiens) (Q9H1R3 whole entry): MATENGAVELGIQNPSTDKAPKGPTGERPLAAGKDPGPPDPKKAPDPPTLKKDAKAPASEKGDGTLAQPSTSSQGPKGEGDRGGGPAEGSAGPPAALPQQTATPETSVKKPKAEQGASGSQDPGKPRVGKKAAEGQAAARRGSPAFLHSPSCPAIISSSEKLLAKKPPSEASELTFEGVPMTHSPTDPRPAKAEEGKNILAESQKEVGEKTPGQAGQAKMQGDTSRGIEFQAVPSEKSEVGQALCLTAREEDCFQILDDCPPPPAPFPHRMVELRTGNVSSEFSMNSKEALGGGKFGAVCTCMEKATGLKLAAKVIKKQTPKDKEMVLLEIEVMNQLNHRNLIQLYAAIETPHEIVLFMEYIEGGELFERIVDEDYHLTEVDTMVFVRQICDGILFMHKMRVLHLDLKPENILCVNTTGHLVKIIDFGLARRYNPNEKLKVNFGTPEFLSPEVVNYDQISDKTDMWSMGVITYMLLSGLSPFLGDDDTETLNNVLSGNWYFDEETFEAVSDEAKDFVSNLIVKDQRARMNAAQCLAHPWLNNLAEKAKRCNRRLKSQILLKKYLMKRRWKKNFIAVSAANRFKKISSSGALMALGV

`Cc1cc(-c2cnc(N)c3c(-c4ccc5scnc5c4)csc23)n(C)n1`: the residual activity in data set [1] came to 96.9%; in data set [2], 102%; in data set [4], 96.6%; in data set [5], 98.3%; in data set [6] it was 88.1%; in data set [7], 94.2%. Further, the residual activity in data set [8] worked out at 97.8%. In addition, in data set [3], the Activity result is “Non-Toxic”.
For `CC(C)S(=O)(=O)c1ccc2nccc(Nc3ccc4scnc4c3)c2c1`, the residual activity in data set [1] is 98.5%; in data set [2], 83%; in data set [4], 90.8%; in data set [5], 104%; in data set [6], 94.8%; in data set [7] it was 97.7%. In addition, the residual activity in data set [8] is 101%. The Activity result in data set [3] is “Non-Toxic”.
On to `CNC(=O)c1ccc2c(c1)ncn2-c1ccc(CC(=O)OC(C)(C)C)cc1`, for which the residual activity in data set [1] worked out at 95.3%; in data set [2] it was 93.8%; in data set [4] it was 101%; in data set [5] it was 99%; in data set [6], 88.9%; in data set [7] it was 96.2%. The residual activity in data set [8] worked out at 94.9%. For the same compound, in data set [3], the Activity result is recorded as “Non-Toxic”.
